Measurements as given in patent US20050107423A1, “Quinolone antibacterial agents” (priority 2003, published 2005).
≈ marks a conversion by molar mass, not a printed value.

How the values were obtained:
Assay in all cases: Antibacterial assay, microtitration MIC (Test A)
Format in all cases: cell-based
E. coli EC-2549 = settings: strain EC-2549; for MIC: Escherichia coli, EC2549, Gram Negative Bacteria, read-out: Minimum Inhibitory Concentrations E. coli EC-2549; for Minimum Inhibitory Concentrations E. coli EC-2549: Gram Negative Bacteria
Procedure: (§1) The compounds of the present invention were tested against an assortment of Gram-negative and Gram-positive organisms using standard microtitration techniques (Cohen et. al., Antimicrob., 1985;28:766; Heifetz, et. al., Antimicrob., 1974;6:124). The results of the evaluation are shown in Tables 1A and B, wherein “-” means no data.

M. catarrhalis BC-3531 = settings: strain BC-3531; for MIC: Moraxella catarrhalis, BC3531, Gram Negative Bacteria, read-out: Minimum Inhibitory Concentrations M. catarrhalis BC-3531; for Minimum Inhibitory Concentrations M. catarrhalis BC-3531: Gram Negative Bacteria
Procedure: as §1

H. influenzae HI-3542 = settings: strain HI-3542; for MIC: Haemophilus influenzae, HI3542, Gram Negative Bacteria, read-out: Minimum Inhibitory Concentrations H. influenzae HI-3542; for Minimum Inhibitory Concentrations H. influenzae HI-3542: Gram Negative Bacteria
Procedure: as §1

Row | MIC (E. coli EC-2549) [µg/mL] | MIC (M. catarrhalis BC-3531) [µg/mL] | MIC (H. influenzae HI-3542) [µg/mL] | SMILES | Minimum Inhibitory Concentrations E. coli EC-2549 (E. coli EC-2549) [µg/mL] | Minimum Inhibitory Concentrations M. catarrhalis BC-3531 (M. catarrhalis BC-3531) [µg/mL] | Minimum Inhibitory Concentrations H. influenzae HI-3542 (H. influenzae HI-3542) [µg/mL]
1 | 0.06 (≈ 0.148 µM) | 0.015 (≈ 0.0371 µM) | 0.008 (≈ 0.0198 µM) | COC[C@@H]1CN(c2c(F)cc3c(=O)c(C(=O)O)cn(C4CC4)c3c2C)C[C@@H]1CO [drawing 389] |  |  | 
2 | 0.125 (≈ 0.299 µM) | 0.03 (≈ 0.0717 µM) | 0.03 (≈ 0.0717 µM) | CCOC[C@@H]1CN(c2c(F)cc3c(=O)c(C(=O)O)cn(C4CC4)c3c2C)C[C@@H]1CO [drawing 390] |  |  | 
3 | 0.25 (≈ 0.578 µM) | 0.03 (≈ 0.0694 µM) | 0.06 (≈ 0.139 µM) | CCCOC[C@@H]1CN(c2c(F)cc3c(=O)c(C(=O)O)cn(C4CC4)c3c2C)C[C@@H]1CO [drawing 391] |  |  | 
4 | 0.5 (≈ 1.05 µM) | 0.06 (≈ 0.126 µM) | 0.125 (≈ 0.263 µM) | CC(=O)OC[C@@H]1CN(c2c(F)cc3c(=O)c(C(=O)O)cn(C4CC4)c3c2C)C[C@@H]1COC(C)=O [drawing 392] |  |  | 
5 | 1 (≈ 1.99 µM) | 0.03 (≈ 0.0597 µM) | 0.5 (≈ 0.995 µM) | CCC(=O)OC[C@@H]1CN(c2c(F)cc3c(=O)c(C(=O)O)cn(C4CC4)c3c2C)C[C@@H]1COC(=O)CC [drawing 393] |  |  | 
6 | 8 (≈ 15.1 µM) | 2 (≈ 3.77 µM) | 2 (≈ 3.77 µM) | Cc1c(N2C[C@@H](COC(=O)C(C)C)[C@@H](COC(=O)C(C)C)C2)c(F)cc2c(=O)c(C(=O)O)cn(C3CC3)c12 [drawing 394] |  |  | 
7 | 0.125 (≈ 0.299 µM) | 0.06 (≈ 0.143 µM) | 0.015 (≈ 0.0358 µM) | Cc1c(N2C[C@@H](CCO)[C@@H](CCO)C2)c(F)cc2c(=O)c(C(=O)O)cn(C3CC3)c12 [drawing 395] |  |  | 
8 | 1 (≈ 2.3 µM) | 0.125 (≈ 0.288 µM) | 0.06 (≈ 0.138 µM) | COc1c(N2C[C@@H](CCO)[C@@H](CCO)C2)c(F)cc2c(=O)c(C(=O)O)cn(C3CC3)c12 [drawing 396] |  |  | 
9 | 1 (≈ 2.13 µM) | 0.125 (≈ 0.266 µM) | 0.06 (≈ 0.128 µM) | O=C(O)c1cn(C2CC2)c2c(OC(F)F)c(N3C[C@@H](CCO)[C@@H](CCO)C3)c(F)cc2c1=O [drawing 397] |  |  | 
10 | 0.06 (≈ 0.154 µM) | 0.008 (≈ 0.0206 µM) | 0.015 (≈ 0.0386 µM) | Cc1c(N2CC(CO)C(C)(C)C2)c(F)cc2c(=O)c(C(=O)O)cn(C3CC3)c12 (stereo not drawn) [drawing 418] |  |  | 
11 | 0.125 (≈ 0.323 µM) | 0.008 (≈ 0.0207 µM) | 0.015 (≈ 0.0388 µM) | Cc1c(N2CC(CO)C3(CC3)C2)c(F)cc2c(=O)c(C(=O)O)cn(C3CC3)c12 (stereo not drawn) [drawing 419] |  |  | 
12 | 0.06 (≈ 0.149 µM) | 0.008 (≈ 0.0199 µM) | 0.008 (≈ 0.0199 µM) | COc1c(N2CC(CO)C3(CC3)C2)c(F)cc2c(=O)c(C(=O)O)cn(C3CC3)c12 (stereo not drawn) [drawing 420] |  |  | 
13 | 0.06 (≈ 0.147 µM) | 0.008 (≈ 0.0197 µM) | 0.004 (≈ 0.00983 µM) | O=C(O)c1cn(C2CC2)c2c(Cl)c(N3CC(CO)C4(CC4)C3)c(F)cc2c1=O (stereo not drawn) [drawing 421] |  |  | 
14 | 0.125 (≈ 0.3 µM) | 0.03 (≈ 0.072 µM) | 0.015 (≈ 0.036 µM) | Cc1c(N2CC(C(O)CO)C3(CC3)C2)c(F)cc2c(=O)c(C(=O)O)cn(C3CC3)c12 (stereo not drawn) [drawing 422] |  |  | 
15 | 0.25 (≈ 0.621 µM) | 0.015 (≈ 0.0373 µM) | 0.06 (≈ 0.149 µM) | Cc1c(N2CC(C(C)O)C(C)(C)C2)c(F)cc2c(=O)c(C(=O)O)cn(C3CC3)c12 (stereo not drawn) [drawing 423] |  |  | 
16 | 2 (≈ 4.2 µM) | 0.25 (≈ 0.525 µM) | 0.5 (≈ 1.05 µM) | COCCOCC(O)C1CN(c2c(F)cc3c(=O)c(C(=O)O)cn(C4CC4)c3c2C)CC1(C)C (stereo not drawn) [drawing 424] |  |  | 
17 | 0.5 (≈ 1.19 µM) | 0.06 (≈ 0.143 µM) | 0.06 (≈ 0.143 µM) | Cc1c(N2CC(C(O)CO)C(C)(C)C2)c(F)cc2c(=O)c(C(=O)O)cn(C3CC3)c12 (stereo not drawn) [drawing 425] |  |  | 
18 | 1 (≈ 2.31 µM) | 0.125 (≈ 0.289 µM) | 0.25 (≈ 0.578 µM) | COCC(O)C1CN(c2c(F)cc3c(=O)c(C(=O)O)cn(C4CC4)c3c2C)CC1(C)C (stereo not drawn) [drawing 426] |  |  | 
19 |  |  |  | Cc1c(N2CC(C)(CO)C(C)(CO)C2)c(F)cc2c(=O)c(C(=O)O)cn(C3CC3)c12 (stereo not drawn) [drawing 437] | 0.5 | 0.06 | 0.06
20 |  |  |  | Cc1c(N2CC(C)(CO)C(C)(CO)C2)c(F)cc2c(=O)c(C(=O)O)cn(C3CC3)c12 (stereo not drawn) [drawing 438] | 2 | 0.25 | 0.125
21 | 0.03 (≈ 0.0776 µM) | 0.008 (≈ 0.0207 µM) | 0.008 (≈ 0.0207 µM) | Cc1c(N2C[C@@H]3CC[C@@H](O)[C@@H]3C2)c(F)cc2c(=O)c(C(=O)O)cn(C3CC3)c12 [drawing 442] |  |  | 
22 | 0.25 (≈ 0.621 µM) | 0.03 (≈ 0.0745 µM) | 0.03 (≈ 0.0745 µM) | COc1c(N2C[C@@H]3CC[C@@H](O)[C@@H]3C2)c(F)cc2c(=O)c(C(=O)O)cn(C3CC3)c12 [drawing 443] |  |  | 
23 | 0.25 (≈ 0.505 µM) | 0.03 (≈ 0.0606 µM) | 0.03 (≈ 0.0606 µM) | Nc1nc(-n2cc(C(=O)O)c(=O)c3cc(F)c(N4C[C@@H]5CC[C@@H](O)[C@@H]5C4)c(Cl)c32)c(F)cc1F [drawing 444] |  |  | 
24 | 0.5 (≈ 0.931 µM) | 0.06 (≈ 0.112 µM) | 0.03 (≈ 0.0559 µM) | CC(=O)O[C@@H]1CC[C@H]2CN(c3c(F)cc4c(=O)c(C(=O)O)cn(-c5nc(N)c(F)cc5F)c4c3Cl)C[C@H]21 [drawing 445] |  |  | 
